Assay results as given in ChEMBL document CHEMBL1147294, “Plant antimutagenic agents, 5. Isolation and structure of two new isoflavones, fremontin and fremontone from Psorothamnus fremontii” (J Nat Prod, 1989).

Tests used:
Salmonella typhimurium [1] = assay: Antimutagenic activity in Salmonella Typhimurium assessed as inhibition of 2-aminoanthracene-induced mutation at 0.3 mg/plate; assay type: functional, Salmonella enterica subsp. enterica serovar Typhimurium
Salmonella typhimurium [2] = assay: Antimutagenic activity in Salmonella Typhimurium T-100 assessed as inhibition of ethyl methanesulfonate-induced mutation at 300 ug/plate; assay type: functional, Salmonella enterica subsp. enterica serovar Typhimurium
Salmonella typhimurium [3] = assay: Antimutagenic activity in Salmonella Typhimurium T-98 assessed as inhibition of acetylaminofluorene-induced mutation at 150 ug/plate; assay type: functional, Salmonella enterica subsp. enterica serovar Typhimurium
Salmonella typhimurium [4] = assay: Antimutagenic activity in Salmonella Typhimurium T-98 assessed as inhibition of acetylaminofluorene-induced mutation at 300 ug/plate; assay type: functional, Salmonella enterica subsp. enterica serovar Typhimurium
Salmonella typhimurium [5] = assay: Antimutagenic activity in Salmonella Typhimurium T-98 assessed as inhibition of 2-aminoanthracene-induced mutation at 75 ug/plate; assay type: functional, Salmonella enterica subsp. enterica serovar Typhimurium
Salmonella typhimurium [6] = assay: Antimutagenic activity in Salmonella Typhimurium T-98 assessed as inhibition of acetylaminofluorene-induced mutation at 75 ug/plate; assay type: functional, Salmonella enterica subsp. enterica serovar Typhimurium
Salmonella typhimurium [7] = assay: Antimutagenic activity in Salmonella Typhimurium T-98 assessed as inhibition of acetylaminofluorene-induced mutation at 37.5 ug/plate; assay type: functional, Salmonella enterica subsp. enterica serovar Typhimurium
Salmonella typhimurium [8] = assay: Antimutagenic activity in Salmonella Typhimurium T-98 assessed as inhibition of 2-aminoanthracene-induced mutation at 37.5 ug/plate; assay type: functional, Salmonella enterica subsp. enterica serovar Typhimurium
Salmonella typhimurium [9] = assay: Antimutagenic activity in Salmonella Typhimurium T-100 assessed as inhibition of ethyl methanesulfonate-induced mutation at 75 ug/plate; assay type: functional, Salmonella enterica subsp. enterica serovar Typhimurium
Salmonella typhimurium [10] = assay: Antimutagenic activity in Salmonella Typhimurium T-98 assessed as inhibition of 2-aminoanthracene-induced mutation at 150 ug/plate; assay type: functional, Salmonella enterica subsp. enterica serovar Typhimurium
Salmonella typhimurium [11] = assay: Antimutagenic activity in Salmonella Typhimurium T-100 assessed as inhibition of ethyl methanesulfonate-induced mutation at 150 ug/plate; assay type: functional, Salmonella enterica subsp. enterica serovar Typhimurium
Salmonella typhimurium [12] = assay: Antimutagenic activity in Salmonella Typhimurium T-100 assessed as inhibition of ethyl methanesulfonate-induced mutation at 37.5 ug/plate; assay type: functional, Salmonella enterica subsp. enterica serovar Typhimurium
Salmonella typhimurium [13] = assay: Toxicity to Salmonella Typhimurium at 0.3 to 0.075 mg/plate; assay type: organism-based, Salmonella enterica subsp. enterica serovar Typhimurium; details: in vivo
Salmonella typhimurium [14] = assay: Antimutagenic activity in Salmonella Typhimurium T-98 assessed as inhibition of 2-aminoanthracene-induced mutation at 300 ug/plate; assay type: functional, Salmonella enterica subsp. enterica serovar Typhimurium
Salmonella typhimurium [15] = assay: Antimutagenic activity in Salmonella Typhimurium assessed as inhibition of 2-aminoanthracene-induced mutation at 0.6 mg/plate; assay type: functional, Salmonella enterica subsp. enterica serovar Typhimurium
Salmonella typhimurium [16] = assay: Toxicity to Salmonella Typhimurium at 0.6 mg/plate; assay type: organism-based, Salmonella enterica subsp. enterica serovar Typhimurium; details: in vivo

Row | SMILES | inhibition (INH) (Salmonella typhimurium [1]) | inhibition (INH) (Salmonella typhimurium [2]) | inhibition (INH) (Salmonella typhimurium [3]) | inhibition (INH) (Salmonella typhimurium [4]) | inhibition (INH) (Salmonella typhimurium [5]) | inhibition (INH) (Salmonella typhimurium [6]) | inhibition (INH) (Salmonella typhimurium [7]) | inhibition (INH) (Salmonella typhimurium [8]) | inhibition (INH) (Salmonella typhimurium [9]) | inhibition (INH) (Salmonella typhimurium [10]) | inhibition (INH) (Salmonella typhimurium [11]) | inhibition (INH) (Salmonella typhimurium [12]) | Activity (Salmonella typhimurium [13]) | inhibition (INH) (Salmonella typhimurium [14]) | inhibition (INH) (Salmonella typhimurium [15]) | Activity (Salmonella typhimurium [16])
1 | C=CC(C)(C)c1cc(-c2coc3cc(O)cc(O)c3c2=O)c(O)cc1O [FREMONTIN] | 92% | 87% | 0% | 0% | 0% | 0% | 0% | 65% | 90% | 24% | 81% | 58% | Non-toxic | 93% | 92% | –
2 | C=CC(C)(C)c1cc(-c2coc3cc(O)cc(O)c3c2=O)c(O)c(CC=C(C)C)c1O [FREMONTONE] | – | 94% | 27% | 70% | 78% | 3% | 0% | 89% | 81% | 17% | 86% | 63% | Non-toxic | 93% | – | Non-toxic
